Results from the NIST ThermoML archive (doi:10.1016/j.jct.2016.06.012).
Several values for one entry are separate records, joined by “and”; a condition that tells them apart may be missing. Equal values may be shown once. ± gives the expanded uncertainty stated by the source.

Columns and labels:
[1] = xn = mol fraction of the nth substance listed; conditions: 100 kPa, Liquid, x2 = 0; for viscosity: Capillary tube (Ostwald / Ubbelohde) method; for mass density: Vibrating tube method

O=C1CCCO1 [γ-butyrolactone] + CCC[n+]1ccn(C)c1C.O=S(=O)([N-]S(=O)(=O)C(F)(F)F)C(F)(F)F
[1]
Conditions	mass density [kg/m3]	viscosity [mPa·s]
293.15 K	1129.49 ± 9	1.86 ± 0.04
298.15 K	1124.59 ± 9	1.71 ± 0.04
303.15 K	1119.68 ± 9	1.58 ± 0.03
308.15 K	1114.78 ± 8.9	1.47 ± 0.03
313.15 K	1109.87 ± 8.9	1.37 ± 0.03
318.15 K	1104.96 ± 8.8	1.28 ± 0.03
323.15 K	1100.05 ± 8.8	1.2 ± 0.03

O=C1CCCO1 [γ-butyrolactone] + CCn1cc[n+](C)c1C.O=S(=O)([N-]S(=O)(=O)C(F)(F)F)C(F)(F)F
[1]
Conditions	mass density [kg/m3]	viscosity [mPa·s]
293.15 K	1129.49 ± 9	1.86 ± 0.04
298.15 K	1124.59 ± 9	1.71 ± 0.04
303.15 K	1119.68 ± 9	1.58 ± 0.03
308.15 K	1114.78 ± 8.9	1.47 ± 0.03
313.15 K	1109.87 ± 8.9	1.37 ± 0.03
318.15 K	1104.96 ± 8.8	1.28 ± 0.03
323.15 K	1100.05 ± 8.8	1.2 ± 0.03

CCn1cc[n+](C)c1C.O=S(=O)([N-]S(=O)(=O)C(F)(F)F)C(F)(F)F
100 kPa
Conditions	mass density [kg/m3]	viscosity [mPa·s]
293.15 K, Metastable liquid, Capillary tube (Ostwald / Ubbelohde) method	–	89.27 ± 2
293.15 K, Metastable liquid, Vibrating tube method	1496.32 ± 12	–
298.15 K, Metastable liquid, Capillary tube (Ostwald / Ubbelohde) method	–	70.77 ± 1.5
298.15 K, Metastable liquid, Vibrating tube method	1491.47 ± 12	–
303.15 K, Capillary tube (Ostwald / Ubbelohde) method, Liquid	–	57.02 ± 1.2
303.15 K, Vibrating tube method, Liquid	1486.67 ± 12	–
308.15 K, Capillary tube (Ostwald / Ubbelohde) method, Liquid	–	46.6 ± 0.98
308.15 K, Vibrating tube method, Liquid	1481.87 ± 12	–
313.15 K, Capillary tube (Ostwald / Ubbelohde) method, Liquid	–	38.62 ± 0.81
313.15 K, Vibrating tube method, Liquid	1477.09 ± 12	–
318.15 K, Capillary tube (Ostwald / Ubbelohde) method, Liquid	–	32.33 ± 0.68
318.15 K, Vibrating tube method, Liquid	1472.32 ± 12	–
323.15 K, Capillary tube (Ostwald / Ubbelohde) method, Liquid	–	27.06 ± 0.57
323.15 K, Vibrating tube method, Liquid	1467.56 ± 12	–

CCC[n+]1ccn(C)c1C.O=S(=O)([N-]S(=O)(=O)C(F)(F)F)C(F)(F)F
100 kPa, Liquid
Conditions	mass density, Vibrating tube method [kg/m3]	viscosity, Capillary tube (Ostwald / Ubbelohde) method
293.15 K	1459.14 ± 12	121.7 ± 3 mPa·s
298.15 K	1454.44 ± 12	92.8 ± 2.1 mPa·s
303.15 K	1449.72 ± 12	72.1 ± 1.6 mPa·s and 71.1 ± 1.5 mPa·s
308.15 K	1445 ± 12	57.76 ± 1.2 mPa·s
313.15 K	1440.28 ± 12	46.53 ± 0.98 mPa·s
318.15 K	1435.57 ± 11	38.4 ± 0.81 mPa·s
323.15 K	1430.87 ± 11	31.89 ± 0.67 mPa·s

O=C1CCCO1 [γ-butyrolactone] + CCCCn1cc[n+](C)c1C.O=S(=O)([N-]S(=O)(=O)C(F)(F)F)C(F)(F)F
[1]
Conditions	mass density [kg/m3]	viscosity [mPa·s]
293.15 K	1129.49 ± 9	1.86 ± 0.04
298.15 K	1124.59 ± 9	1.71 ± 0.04
303.15 K	1119.68 ± 9	1.58 ± 0.03
308.15 K	1114.78 ± 8.9	1.47 ± 0.03
313.15 K	1109.87 ± 8.9	1.37 ± 0.03
318.15 K	1104.96 ± 8.8	1.28 ± 0.03
323.15 K	1100.05 ± 8.8	1.2 ± 0.03

CCCCn1cc[n+](C)c1C.O=S(=O)([N-]S(=O)(=O)C(F)(F)F)C(F)(F)F
100 kPa, Liquid
Conditions	mass density, Vibrating tube method [kg/m3]	viscosity, Capillary tube (Ostwald / Ubbelohde) method [mPa·s]
293.15 K	1423.72 ± 11	133.59 ± 3.4
298.15 K	1419.13 ± 11	101.34 ± 2.4
303.15 K	1414.52 ± 11	77.86 ± 1.7
308.15 K	1409.91 ± 11	61.73 ± 1.3
313.15 K	1405.31 ± 11	49.77 ± 1
318.15 K	1400.7 ± 11	40.7 ± 0.85
323.15 K	1396.13 ± 11	33.69 ± 0.71
